# According to patent US20020049173A1, “Alteration of cellular behavior by antisense modulation of mRNA processing” (priority 1999, published 2002):
# In the oligonucleotide strings, read from the 5' end, every base follows the letter of its sugar. An asterisk marks phosphorothioate; unmarked linkages are phosphodiester. Other units and linkages are bracketed, terminal groups are in braces. A string of capitals states the bases alone. e = 2'-O-(2-methoxyethyl) (MOE); [5mC] = 5-methylcytosine
# What was measured:
# [1] = test system: TF-1 cells; assay: Apoptosis induction in TF-1 cells, Annexin-V staining; type: cell-based, human; settings: 48 hours, IL-5 0.5 ng/ml
# Description: 1×10^6 TF-1 cells cultured in IL-5 (0.5 ng/ml) were collected 48 hours following oligonucleotide treatment (transfection was by electroporation as described in previous examples) and phosphatidylserine expression was detected as a measure of apoptosis using the Annexin-V staining kit (Clontech, Palo Alto, Calif.) according to the manufacturer's instructions. Briefly, cells were resuspended in 0.2 ml of staining buffer (10 mM Hepes, pH 7.4, 140 mM NaCl, 5 mM CaCl2) and […] of propidium iodide (50 μg/ml) and 5 μl of Annexin V reagent were added at 4° C. for 10 minutes. The samples were diluted with FacsFlow (Becton Dickinson, Franklin Lakes N.J.) buffer and analyzed on a Becton Dickinson FACScan.
# [2] = test system: TF-1 cells; assay: IL-5-induced TF-1 cell proliferation, [3H]-thymidine incorporation; type: cell-based, human; settings: for % of control thymidine incorporation: compared to untreated controls
# Description: 2.5×10^4 TF-1 cells were incubated in 96-well plates in 200 μl complete RPMI in the absence of IL-5 for 16 hours following electroporation. IL-5 (0.5 ng/ml) was added and the cultures were pulsed with 1 μCi of [^3H]-thymidine for the last 8 hours of a 48-hour culture period. The cells were harvested on glass fiber filters and analyzed for thymidine incorporation (proportional to cell proliferation) by liquid scintillation counting.
# Results are compared to thymidine incorporation in untreated controls.
# [3] = test system: human bcl-x mRNA; assay: Total bcl-x mRNA and bcl-xs/bcl-xl ratio in A549 cells, RNase protection; type: cell-based; settings: for bcl-xs/bcl-xl: 200 nM oligonucleotide (Table 15); for ratio of bcl-xs/bcl-xl: Oligo Concentration 200 (unit not given)
# Text: (§1) In accordance with the present invention, a series of oligonucleotides were designed to target different regions of human bcl-x RNA, using published sequences (Boise, L. H., et al., 1993, Cell 74, 597-608; Genbank Accession No. L20121, locus name “HSBCLXL,” incorporated herein as SEQ ID NO: 39). Antisense oligonucleotides were designed to target areas of exon 1 and exon 2 of human bcl-x, particularly around the exon 1/exon 2 splice site and in sequence regions present in bcl-xl but not in bcl-xs. All backbone linkages are phosphorothioates; All 2′MOE cytosines are 5-methylcytosines.
# (§2) Oligonucleotides were evaluated for their respective effects on bcl-xs and bcl-xl3 mRNA levels in A549 cells along with total bcl-x mRNA levels, using the RIBOQUANT™ RNase protection kit (Pharmingen, San Diego Calif.). All assays were performed according to manufacturer's protocols.
# (§3) A “walk” was done in this region with 20mer 2′-MOE phosphorothioate oligonucleotides targeted to sequences whose 5′ ends were 24, 26, 29, 31, 33, 37, 39, 41, 43, 44, 45 and 47 bases upstream of the splice site. These oligonucleotides were screened as before at a dose of 200 nM oligonucleotide for effect on short and long bcl-x transcripts.
# [4] = test system: human bcl-xl mRNA; assay: bcl-xl mRNA in A549 cells, RIBOQUANT RNase protection; type: cell-based; settings: 200 nM oligonucleotide (Table 15)
# Text: as §1, §2, §3
# [5] = test system: human bcl-xs mRNA; assay: bcl-xs mRNA in A549 cells, RIBOQUANT RNase protection; type: cell-based; settings: 200 nM oligonucleotide (Table 15)
# Text: as §1, §2, §3
# [6] = test system: human bcl-x mRNA; assay: Total bcl-x mRNA and bcl-xs/bcl-xl ratio in A549 cells, RNase protection; type: cell-based
# [7] = test system: Human IL-5 receptorα membrane form mRNA; assay: Human IL-5 receptorα membrane form mRNA expression (18 hr); type: cell-based
# Text: mRNA transcripts encoding the membrane form of the human IL-5 receptorα contain exons 1-10 and 12-14. Exon 11 is spliced out. It is, therefore, possible to target sequences in exons 1-10 which are common to both soluble and membrane forms of the receptor, or to selectively target sequences only present in the membrane form (exons 12-14). Oligonucleotides were also designed to target various intron/exon boundaries downstream of exon 11, with the intention of preventing successful splicing out of exon 11 and thus redirecting splice products away from the membrane form and in favor of the soluble form of IL-5 receptorα.
# (§4) A series of oligonucleotides were designed to target various splice sites or (intron-exon boundaries) in the IL-5 receptor mRNA.
# [8] = test system: Human IL-5 receptorα; assay: Human IL-5 receptorα protein expression on the cell surface (36 hr), TF-1 cells; type: cell-based; design: % INHIB, human IL-5 receptorα protein on the cell surface / % of CONTROL, human IL-5 receptorα protein on the cell surface: concentration or dose not given beside the values
# Text: as §4
# ISIS 16746, 16748, 16755 and 16758 inhibited human IL-5 receptorα protein by over 50% in this assay and are therefore preferred. ISIS 16758 and 16755 were chosen for further study.
# [9] = test system: E-selectin mRNA; assay: Non-quantitative RT-PCR of E-selectin Type I, II and III transcripts in HUVEC; type: cell-based, human; settings: relative to untreated cells, 200 nM stated for ISIS 106344
# Description: Total RNA was harvested from HUVEC at various times following TNF-α induction using a ToTALLY RNA kit (Ambion) according to the manufacturer's protocol). For Northern blots, RNA was separated on a 1.2% agarose gel containing 1.1% formaldehyde, then transferred to nylon membranes. Blots were hybridized with [^32P]-dCTP random prime labeled cDNA probes specific for E-selectin or […] (G3PDH) for 2 hours in Rapid-hyb solution (Amersham). Blots were washed with 2×SSC containing 0.1% SDS at room temperature, followed by 0.1×SSC containing 0.1% SDS at 60° C. Quantitation of RNA expression was performed using a Molecular Dynamics PhosphorImager. Anchored reverse transcriptase polymerase chain reaction (RT/PCR) was performed essentially as described by Chu et al. (supra.).
# To determine if processing could be controlled more specifically, oligonucleotides were also designed to the upstream polyadenylation signals. Non-quantitative RT-PCR was used to distinguish among the three forms of the message. In the absence of oligonucleotide, all three types of transcript were detected. […] This difference may be due to variation in the efficiency of PCR amplification on the varying length products, with the shorter Type I and II messages being more efficiently amplified than the Type III product. […] To determine if the effects of ISIS 106344 were unique, antisense oligonucleotides were designed to the Type I and Type II polyadenylation sites.
# To evaluate whether treatment with two oligonucleotides would result in the production of a single species of E-selectin message, HUVEC were treated with ISIS 106344, and either ISIS 135568 or ISIS 135570 (150 nM each). […] Cells were also treated with both ISIS 135568 and ISIS 135570.
# [10] = Oligo Concentration 50 (unit not given)
# [11] = Oligo Concentration 100 (unit not given)
# [12] = Oligo Concentration 400 (unit not given)
# [13] = Oligo Concentration 600 (unit not given)
substance,measurement,setting,value
18011 (eT*e[5mC]*eA*eG*e[5mC]*eA*eG*eT*eT*eA*e[5mC]*eT*eT*eG*eT*eG*eT*eA*eA*eA) [compound 18011],% Apoptotic cells,[1]; oligo dose 10 μM,19%
same,% Apoptotic cells,[1]; oligo dose 15 μM,23.6%
same,% Apoptotic cells,[1]; oligo dose 20 μM,21.8%
same,% of control thymidine incorporation,[2]; oligo dose 10 μM,95.6%
same,% of control thymidine incorporation,[2]; oligo dose 15 μM,97.9%
same,% of control thymidine incorporation,[2]; oligo dose 20 μM,84.6%
22783 (e[5mC]*eT*eG*eG*eA*eT*e[5mC]*e[5mC]*eA*eA*eG*eG*e[5mC]*eT*e[5mC]*eT*eA*eG*eG*eT) [compound 22783],bcl-xs/bcl-xl,[3]; A549 cells,5.25
same,bcl-xs/bcl-xl (%),"[3]; A549 cells, no oligo 17.56",293.1%
same,ratio of bcl-xs/bcl-xl,[3],7
same,% CONTROL bcl-xl,[4],47%
same,% CONTROL bcl-xs,[5],247%
same,ratio of bcl-xs/bcl-xl,[6]; [10],3
same,ratio of bcl-xs/bcl-xl,[6]; [11],2
same,ratio of bcl-xs/bcl-xl,[6]; [12],24
same,ratio of bcl-xs/bcl-xl,[6]; [13],28
"26066 (ATCCAAGGCTCTAGGTGGTC; all 2'-MOE, all phosphorothioate, methylation of C not given here) [compound 26066]",bcl-xs/bcl-xl,[3]; A549 cells,15.38
same,ratio of bcl-xs/bcl-xl,[3],24
same,% CONTROL bcl-xl,[4],26%
same,% CONTROL bcl-xs,[5],400%
same,ratio of bcl-xs/bcl-xl,[6]; [10],6
same,ratio of bcl-xs/bcl-xl,[6]; [11],11
same,ratio of bcl-xs/bcl-xl,[6]; [12],25
"26071 (antisense GCCGTTCTCCTGGATCCAAG; all 2'-MOE, all phosphorothioate, methylation of C not given here) [compound 26071]",bcl-xs/bcl-xl,[3]; A549 cells,7.97
same,% CONTROL bcl-xl,[4],37%
same,% CONTROL bcl-xs,[5],295%
"26072 (antisense CCGCCGTTCTCCTGGATCCA; all 2'-MOE, all phosphorothioate, methylation of C not given here) [compound 26072]",bcl-xs/bcl-xl,[3]; A549 cells,5.38
same,% CONTROL bcl-xl,[4],42%
same,% CONTROL bcl-xs,[5],226%
"26080 (antisense CTGGTTACACGACTCCAGGT; mismatch control, further chemistry not given here) [compound 26080]",ratio of bcl-xs/bcl-xl,[3],<1
same,ratio of bcl-xs/bcl-xl,[6]; [12],1
same,ratio of bcl-xs/bcl-xl,[6]; [13],3
"ISIS 16758: TCATCATTTCCTGGTGGAAA, SEQ ID 35; I11/E12; uniform 2′-MOE (antisense eT*e[5mC]*eA*eT*e[5mC]*eA*eT*eT*eT*e[5mC]*e[5mC]*eT*eG*eG*eT*eG*eG*eA*eA*eA)",effect on IL-5 receptorα mRNA levels,[7],without reducing mRNA levels
same,cell proliferation in response to IL-5 (summary),[2]; TF-1 cells,greatly reduces cellular response to IL-5
same,"% INHIB, human IL-5 receptorα protein on the cell surface",[8]; 36 hr,over 50%
same,IC50,"[8]; TF-1 cells, read-out: IC50 for reduction of IL-5 receptorα cell surface protein",~5 µM
"ISIS 135568: GCTTTTATTAGTTCAAAACGTTTGG, SEQ ID 70; E-selectin Type II poly(A) signal (all 2'-MOE, all phosphorothioate, methylation of C not given here)",Type I E-selectin message (RT-PCR),[9],corresponding increases
same,Type II E-selectin message (RT-PCR),[9],sharp decrease
same,Type III E-selectin message (RT-PCR),[9],corresponding increases
"ISIS 135570: CAGAACTTTATTCTGGTTAACATCATG, SEQ ID 71; E-selectin Type I poly(A) signal (all 2'-MOE, all phosphorothioate, methylation of C not given here)",Type I E-selectin message (RT-PCR),[9],greatly reduced
same,Type II E-selectin message (RT-PCR),[9],increased
same,Type III E-selectin message (RT-PCR),[9],increased
"SEQ ID NO 54: CTCTAGGTGGTCATTCAGGT; 20mer 2′-MOE phosphorothioate, no ISIS # printed; Exon 1L 652-671 (all 2'-MOE, all phosphorothioate, methylation of C not given here)",bcl-xs/bcl-xl,[3]; A549 cells,7.14
same,% CONTROL bcl-xl,[4],42%
same,% CONTROL bcl-xs,[5],300%
"SEQ ID NO 55: GGCTCTAGGTGGTCATTCAG; 20mer 2′-MOE phosphorothioate, no ISIS # printed; Exon 1L 654-673 (all 2'-MOE, all phosphorothioate, methylation of C not given here)",bcl-xs/bcl-xl,[3]; A549 cells,6.72
same,% CONTROL bcl-xl,[4],47%
same,% CONTROL bcl-xs,[5],316%
"SEQ ID NO 57: AAGGCTCTAGGTGGTCATTC; 20mer 2′-MOE phosphorothioate, no ISIS # printed; Exon 1L 656-675 (all 2'-MOE, all phosphorothioate, methylation of C not given here)",bcl-xs/bcl-xl,[3]; A549 cells,7.64
same,% CONTROL bcl-xl,[4],53%
same,% CONTROL bcl-xs,[5],405%
"SEQ ID NO 58: CCAAGGCTCTAGGTGGTCAT; 20mer 2′-MOE phosphorothioate, no ISIS # printed; Exon 1L 658-677 (all 2'-MOE, all phosphorothioate, methylation of C not given here)",bcl-xs/bcl-xl,[3]; A549 cells,10.42
same,% CONTROL bcl-xl,[4],26%
same,% CONTROL bcl-xs,[5],271%
